From patent US20180318383A1, “PEPTIDE HAVING NEURONAL LOSS PREVENTION AND REGENERATION EFFECTS, AND COMPOSITION CONTAINING SAME” (GEMVAX & KAEL CO., LTD., priority 2015, published 2018)
Where no end group is shown, it is not given here.

What was measured:
PI3K pathway = test: NSC survival after PI3K inhibitor LY294002 pre-treatment; type: cell-based, rat; conditions: 10 μM LY294002 pre-treatment, then 20 μM Aβ25-35 and 10 μM PEP1 for 48 hours
Experimental: To identify the role of the PI3K/AKT signaling system in the PEP1 mechanism, NSCs were treated with a PI3K inhibitor LY294002 for 1 hour before treatment of 50 μM PEP1 and 20 μM Aβ25-30. NSCs were divided into four groups as follows: control group (Group 1), group treated with 20 μM Aβ25-35 for 48 hours (Group 2), group treated with 20 μM Aβ25-35, as well as 50 μM PEP1, for 48 hours (Group 3), and group treated with 10 μM LY294002 and 20 μM Aβ25-35, as well as 50 μM PEP1, for 48 hours (Group 4). To investigate a PEP1 effect on nerve protection via a PI3K pathway induced by Aβ25-35 toxicity, NSCs were divided into four groups: control group (Group 1), group treated with 20 μM Aβ25-35 for 48 hours (Group 2), group treated with 20 μM Aβ25-35 and 10 μM PEP1 for 48 hours (Group 3), and group treated with 10 μM LY294002 for […], and then treated with 20 μM Aβ25-35 10 μM PEP1 for 48 hours (Group 4).

NSCs [1] = test: NSC proliferation (BrdU and CFU assays); type: cell-based, rat; conditions: NSCs, Aβ25-35 alone 0-40 μM, 48 hours; BrdU and CFU
Experimental: NSCs were treated with different concentrations of PEP1 and 20 μM Aβ25-30 for 48 hours. Afterward, NSCs were cultured in bromodeoxyuridine (BrdU)-labeled media for 5 hours and observed using a kit. Cell division was evaluated by measuring absorbance at 370 nm and reference absorbance at 492 nm. All results were normalized based on a cell-free well.
A CFU assay was carried out by the following method. Briefly, 0.25×10^5 NSCs were plated in a 6-well plate, and treated with 20 μM Aβ25-30 and then with PEP1 at 1, 10 or 50 μM for 48 hours. The cells were washed with DPBS, and then the medium was exchanged with a fresh cell culture medium. Fourteen days later, the cells were washed again with DPBS, and stained with 0.5% crystal violet dissolved in methanol for 30 minutes at room temperature. Following staining, the plate was washed with DPBS and then dried. The number of colonies was observed using a stereoscopic microscope, and among these colonies, those smaller than 2 mm or faintly stained were removed.

[2] = Cell-free ROS production (DHBA level by HPLC); conditions: 20 μM Aβ25-35 and PEP1 0, 1, 10, 50 μM
Experimental: To investigate how Aβ25-30 and PEP1 influenced ROS, a DHBA level was measured and observed by a cell-free method. This method was carried out by observing the DHBA level in a tube containing 20 μM Aβ25-30 and each concentration of PEP1 (0, 1, 10 or 50 μM) through HPLC.

NSCs [3] = test: Cell viability of NSCs (CCK-8, MTT, LDH); type: cell-based, rat; conditions: NSCs, Aβ25-35 alone 0, 2.5, 5, 10, 20, 40 μM, 48 hours; CCK-8, MTT, LDH
Experimental: NSCs were isolated from the brain of a rat embryo, cultured and developed. The NSC culture was performed in the same manner as to be described below. Briefly describing, a rat embryo was obtained on day 13 of the embryonic period, and the brain was quickly removed and placed in a petri dish containing cold phosphate-buffered physiological saline (Hank's balanced salt solution; HBSS).
Single cells were isolated from the cerebral cortex, the lateral ganglion eminence, and the embryonic midbrain. These cells were put into a dish pre-treated with L-ornithine and fibronectin, containing calcium and magnesium-free phosphate-buffered physiological saline (PBS) at a density of 20,000 cells/cm^2. In addition, the cells were cultured in an N2 medium (DMEM F/12, […] insulin, 100 mg/L transferrin, 30 nM selenite, […], 20 nM progesterone, 0.2 mM ascorbic acid, […], 8.6 mM D(+) glucose, and […]). The culture was maintained in humidified and 5% CO2 conditions for 4 to 6 days at 37° C.
NSCs were divided into 6 samples, and each sample was treated with […] Aβ25-30 oligomers for 48 hours to identify a suitable concentration. […] Briefly, Aβ25-30 was dissolved in hexafluoroisopropanol to reach a concentration of 1 mM. In addition, the prepared solution was dispensed using a sterilized ultramicrocentrifuge tube. […]
To identify the PEP1 effect in NSCs, PEP1 was treated at various concentrations of 0, 1, 10, 50, 100, and 200 μM for 48 hours. […] The plate was gently washed with PBS several times, and cell viability was measured using a cell counting kit-8 (CCK-8), MTT and lactate dehydrogenase (LDH).
CCK-8 was used as a method for counting living cells by bonding 2-[2-methoxy-4-nitrophenyl]-3-[4-nitrophenyl]-5-[2,4-disulfophenyl]-2H-tetrazolium, monosodium salt (WST-8) with 1-methoxyphenazinium methylsulfate (PMS). […] Cell viability was evaluated by measuring absorbance at 450 nm. […] Cell viability was evaluated by measuring absorbance at 490 nm and reference absorbance at 690 nm. […]

O=c1cc(N2CCOCC2)oc2c(-c3ccccc3)cccc12 [LY294002]
survival ability of NSCs degraded, Group 4 compared to Group 3 (PI3K pathway): approximately 16%

Aβ25-35: β-Amyloid 25-35 oligomers used to induce neurotoxicity in NSCs (GSNKGAIIGLM; also: used as oligomers; UniProt P05067 696-706, looked up, fragment) [reference compound]
proliferation (NSCs [1]): significantly reduced in a concentration-dependent method
ROS production under a cell-free condition [2]: did not exhibit a significant influence
cell survival ability (NSCs [3]): significantly reduced in a concentration-dependent method
